Values after ≈ are worked out from the molar mass of the structure shown. Bounds are passed on as bounds.

The first test has as its system HIV-2 (ROD). Kind of test: Inhibition of HIV-2 syncytium formation in CEM cells. The format is cell-based. The settings on record: CEM cells, syncytium formation, day four post infection. The method in brief:
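Human T-lymphoblast CEM cells, suspended at roughly 300,000 cells per ml of culture medium, were infected with about 100 CCID50 of HIV-2 (ROD). Aliquots of 100 μl of infected cells were placed in 200 μl microtiter wells holding 100 μl of serial 5-fold compound dilutions, and syncytium formation was scored microscopically four days after infection.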
As to `N#Cc1ccccc1CS(=O)(=O)c1cccc[n+]1[O-]` [Compound 24], the “EC50 (ug/ml) HIV-2” value came out at 9.5 µg/mL (≈ 34.6 µM).
Still for that read-out and setting: under `O=S(=O)(Cc1ccc(F)cc1)c1cccc[n+]1[O-]` [Compound 29] stands 7.0 µg/mL (≈ 26.2 µM); under `N#CC(=Cc1ccccc1)Sc1cccc[n+]1[O-]` [Compound 158], >4 µg/mL; under `O=S(=O)(Cc1ccccc1Cl)c1cccc[n+]1[O-]` [Compound 15], 7.0 µg/mL (≈ 24.7 µM).

The same test, now with this note: protection of CEM cells against virus-induced cytopathicity at the concentration in the previous column.
As for `N#CC(=Cc1ccccc1)Sc1cccc[n+]1[O-]` [Compound 158], the “HIV-2 % Protection” value was 0.0%.

The next test relates to HIV-1 (IIIB). Briefly: microbe, parasite or virus in culture. The format is cell-based. The settings on record: CEM cells, syncytium formation, day four post infection. The method in brief:
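Human T-lymphoblast CEM cells at roughly 300,000 cells per ml were infected with about 100 CCID50 of HIV-1 (IIIB). Then 100 μl of the infected suspension went into 200 μl microtiter wells holding 100 μl of 5-fold serial compound dilutions. Inhibition of syncytium formation was scored microscopically on day four post infection, and protection against virus-induced cytopathicity was recorded.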
On to `N#Cc1ccccc1CS(=O)(=O)c1cccc[n+]1[O-]` [Compound 24], for which the “EC50 (ug/ml) HIV-1” value came to 7.00 µg/mL (≈ 25.5 µM).
Same read-out and setting: next, `O=S(=O)(Cc1ccc(F)cc1)c1cccc[n+]1[O-]` [Compound 29]: 11.00 µg/mL (≈ 41.2 µM); `N#CC(=Cc1ccccc1)Sc1cccc[n+]1[O-]` [Compound 158]: >4 µg/mL; `O=S(=O)(Cc1ccccc1Cl)c1cccc[n+]1[O-]` [Compound 15]: 6.00 µg/mL (≈ 21.1 µM).

Staying with this test, now noted: protection of CEM cells against virus-induced cytopathicity at the concentration in the previous column.
In the case of `N#CC(=Cc1ccccc1)Sc1cccc[n+]1[O-]` [Compound 158], the “HIV-1 % Protection” value was found to be 0.0%.

Another test deals with Davis strain CMV. Briefly: Reduction of CMV-induced cytopathicity in HEL cells. The format is cell-based, human cytomegalovirus (HCMV). The conditions noted are these: HEL cells, estimate of percent protection at the concentration in the previous column. A digest of the protocol: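 Confluent HEL cells were infected with 100 PFU/well CMV for 1–2 h, then washed and kept in MEM with 2% FCS and test compound. EC50 is the concentration cutting virus-induced cytopathicity by 50% versus untreated control at day 7. Where cytotoxicity interfered, percent protection at the stated concentration is given.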
`N#Cc1ccccc1CS(=O)(=O)c1cccc[n+]1[O-]` [Compound 24]: the “Antiviral % Inhibition Davis strain CMV” value is 30.0%.
For `O=S(=O)(Cc1ccc(F)cc1)c1cccc[n+]1[O-]` [Compound 29], the “Antiviral % Inhibition Davis strain CMV” value is 10.0%.

The same test, now with this note: HEL cells, virus-induced cytopathicity after seven days.
`N#Cc1ccccc1CS(=O)(=O)c1cccc[n+]1[O-]` [Compound 24]: the “Antiviral EC50 (ug/ml) Davis strain CMV” value is >5 µg/mL.
Consider `O=S(=O)(Cc1ccc(F)cc1)c1cccc[n+]1[O-]` [Compound 29], for which the “Antiviral EC50 (ug/ml) Davis strain CMV” value is >20 µg/mL.
As to `N#CC(=Cc1ccccc1)Sc1cccc[n+]1[O-]` [Compound 158], the “Antiviral EC50 (ug/ml) Davis strain CMV” value was determined as 3.6 µg/mL.
`O=S(=O)(Cc1ccccc1Cl)c1cccc[n+]1[O-]` [Compound 15]: the “Antiviral EC50 (ug/ml) Davis strain CMV” value worked out at 5.0 µg/mL.

These data come from patent publication US7064139B2, “Method for treating retroviral infections” (Uniroyal Chemical Company, Inc., priority 2001, dated 2006).
